Our source for the IC50 and Emax values is patent US20250145637A1, “SULFONAMIDE DERIVATIVE, PREPARATION METHOD THEREFOR AND MEDICAL USE THEREOF” (Jiangsu Hengrui Pharmaceuticals Co. Ltd., priority 2021, published 2025).

The target of one assay is human KAT6A (Homo sapiens (Human), UniProt Q92794). Kind of assay: KAT6 enzyme activity assay (AlphaScreen method), KAT6A. Format: biochemical. The settings on record: inhibition of the enzyme human KAT6A. From the text: Test Example 1: KAT6 Enzyme Activity Assay (AlphaScreen Method)
I. Reagents and instrument • 1. KAT6A (customized by Chempartner) • 2. Ovalbumin (Sigma-Aldrich, A5378-5G) • 3. 2 M Tris-HCl solution, pH 7.8, sterile (Sangon, B548140-0500) • 4. 5 M NaCl solution (Sangon, B548121-0100) • 5. EDTA (0.5 M), pH 8.0, RNase-free (Thermofisher, AM9260G) • 6. Tween-20 (Sangon, A100777-0500) • 7. DTT, 1 M (Invitrogen, P2325) • 8. Acetyl coenzyme A (Ac-CoA, CAYMAN, Cat. No. 16160) • 9. Recombinant histone H3.1 biotinylated (human) (Active Motif 31696) • 10. 384-well plate, light gray (Perkin Elmer, Cat. No. 6005350) • 11. Anacardic acid (MCE, Cat. No. HY—N2020) • 12. AlphaScreen streptavidin donor beads, 5 mg (PerkinElmer, 6760002) • 13. AlphaScreen protein A acceptor beads, 5 mg (PerkinElmer, 6760137M) • 14. Acetylated-lysine antibody #9441 (CST 9441S) • 15. PHERA star microplate reader (BMG labtech) • II. Experimental method
a. 1× assay buffer: 100 mM Tris-HCl, pH 7.8; 15 mM NaCl; 1 mM EDTA; 0.01% tween-20; 1 mM DTT; 0.01% m/v ovalbumin.
b. KAT enzyme solution: 1.25 nM (final concentration), prepared in 1× assay buffer.
c. Mixed substrate of Ac-CoA and H3: a mixed substrate of 1000 nM (final concentration) Ac-CoA and 55 nM (final concentration) H3, prepared in 1× assay buffer.
d. Compounds: initial concentration of 100 μM, 3-fold dilution, 10 gradient concentrations. All compound concentrations were diluted 83-fold with 1× assay buffer for later use.
e. Assay reagent: 8 ng/μL (final concentration) AlphaScreen protein A acceptor beads, 8 ng/μL AlphaScreen streptavidin donor beads, 1:1500 diluted acetylated-lysine antibody, and 100 μM anacardic acid; prepared in 1× assay buffer.
(§1) 2. Experimental Procedure
a. The prepared enzyme solution was added to a 384-well plate at 3 μL/well, and 3 μL of 1× assay buffer was added to each well in columns 23 and 24 (Min).
b. 3 μL of compound solution was added to each well, and 3 μL of buffer was added to each Min well; 3 μL of DMSO solution was added to each well in columns 1 and 2 (Max) as controls. The plate was centrifuged, shaken for 2 min, and incubated at room temperature for 15 min.
c. The mixed substrate of Ac-CoA and H3 was added at 6 μL/well, and the plate was centrifuged, shaken for 2 min, and incubated at room temperature for 20 min.
d. The assay reagent was added at 6 μL/well, and the plate was centrifuged, shaken for 2 min, and incubated in the dark at room temperature for 120 min.
e. Plate reading was performed on the microplate reader, and AlphaScreen counts were recorded.
f. Plotting was performed using the Graphpad software, and the IC50 values of the compounds were calculated.

The subject of assay [1] is H3K23 acetylation in U-2 OS cells. Description: U2OS cell H3K23 acetylation IF assay (immunofluorescence). The format is cell-based. The settings on record: Homo sapiens; for IC50: 24 h incubation, read-out: H3K23 ac/IC50; for Emax: inhibition of H3K23 acetylation, 24 h, read-out: Maximum inhibition rate/Imax %. As to the method: Test Example 3: U2OS Cell H3K23 Acetylation IF Assay (Immunofluorescence)
I. Reagents and Instruments
• 1. U-2 OS (ATCC HTB-96) • 2. Recombinant anti-histone H3 (acetyl K23) antibody (Abcam, ab177275) • 3. Goat anti-rabbit IgG (H+L), Superclonal™ recombinant secondary antibody, Alexa Fluor 488 (Thermofisher, A27034) • 4. Hoechst 33342 (Sigma-Aldrich, B2261-25MG) • 5. Assay plate, 96-well, black with clear bottom (Corning, 3603) • 6. Bovine serum albumin (BSA) (Sangon Biotech, A500023-0100) • 7. Methanol (GENERAL-REAGENT, G75851D) • 8. Tween-20 (Sangon, A100777-0500) • 9. Triton X-100 (Solarbio, T8200) • 10. PBS (Shanghai BasalMedia Technologies Co., Ltd., B320KJ) • 11. 20×PBS buffer (Sangon Biotech, B548117-0500) • 12. McCoy's 5A medium (Gibco, 16600082) • 13. 0.25% trypsin-EDTA (1×) (Gibco, 25200-072) • 14. Pen strep (Gibco, 15140-122) • 15. DPBS (1×) (Gibco, 14190-144) • 16. FBS (Gibco, 10091148) • 17. Automatic cell counter (Countstar, IC1000) • 18. Thermostatic incubator (Thermo, 1160) • 19. ImageXpress® Micro Confocal (Molecular Device)
a. Blocking buffer: PBS (Shanghai BasalMedia)+BSA (final concentration of 1%)+Triton X-100 (final concentration of 0.5%).
b. Wash buffer: PBS (20×PBS was diluted to 1×PBS)+Tween-20 (final concentration of 0.1%).
c. Primary antibody solution: Recombinant anti-histone H3 (acetyl K23) antibody was diluted in blocking buffer at a ratio of 1:1000.
d. Secondary antibody solutions: Goat anti-rabbit IgG (H+L), Superclonal™ recombinant secondary antibody, Alexa Fluor 488 was diluted in blocking buffer at a ratio of 1:1000, and Hoechst 33342 was diluted in blocking buffer at a ratio of 1:5000.
e. Compounds: initial concentration of 100 μM, 3-fold dilution, 9 gradient concentrations. All compound concentrations were diluted 500-fold with McCoy's 5A medium for later use.
as §1
2.1. Cell Treatment (Day One)
a. The state of U-2 OS cells was observed under a microscope to make sure that the cell confluence was about 90%.
b. The cell supernatant was discarded. The cells were rinsed with DPBS once, and the DPBS was removed. The cells were digested with a proper amount of trypsin and left to stand at room temperature or 37° C. for 5 min.
c. The digestion was stopped with an equal volume of medium containing 10% FBS, and the cell suspension was collected and centrifuged at 300 g for 3 min. The cells were suspended in a proper amount of fresh medium.
d. The resulting cell suspension was collected and cell counting was performed.
e. The cell suspension was diluted and plated at 9000 cells/50 μL/well.
f. The wells on the periphery were blocked with 100 μL of PBS.
g. The cell culture plates were incubated overnight in a 37° C., 5% carbon dioxide incubator.
2.2. Compound Addition (Day Two)
a. 50 μL of diluted compound was added to the cell supernatant (50 μL/well) in each cell plate.
b. After the addition, the cell plates were incubated in a 37° C., 5% carbon dioxide incubator for 24 h.
2.3. Immunofluorescence Staining and Measurement (Day Three to Day Four)
a. After the 24-hour incubation, the cell plates were removed from the incubator. The medium was discarded, and plates were fixed with pre-cooled methanol at room temperature for 10 min.
b. The fixation buffer was discarded, and the plates were quickly washed with wash buffer 3 times and then slowly washed 3 times (5 min/wash).
c. The wash buffer was discarded, and blocking buffer was added. The plates were incubated at room temperature for 60 min.
d. The blocking buffer was discarded, and the prepared primary antibody solution was added. The plates were incubated overnight at 4° C.
e. The primary antibody solution was discarded, and the prepared secondary antibody solution was added. The plates were incubated at room temperature for 60 min.
f. The secondary antibody solution was discarded, and the plates were quickly washed with wash buffer 3 times and then slowly washed 5 times (5 min/wash).
g. The plates were tested on ImageXpress® Micro Confocal.
h. […]

Sequence of human KAT6A (Q92794 whole entry): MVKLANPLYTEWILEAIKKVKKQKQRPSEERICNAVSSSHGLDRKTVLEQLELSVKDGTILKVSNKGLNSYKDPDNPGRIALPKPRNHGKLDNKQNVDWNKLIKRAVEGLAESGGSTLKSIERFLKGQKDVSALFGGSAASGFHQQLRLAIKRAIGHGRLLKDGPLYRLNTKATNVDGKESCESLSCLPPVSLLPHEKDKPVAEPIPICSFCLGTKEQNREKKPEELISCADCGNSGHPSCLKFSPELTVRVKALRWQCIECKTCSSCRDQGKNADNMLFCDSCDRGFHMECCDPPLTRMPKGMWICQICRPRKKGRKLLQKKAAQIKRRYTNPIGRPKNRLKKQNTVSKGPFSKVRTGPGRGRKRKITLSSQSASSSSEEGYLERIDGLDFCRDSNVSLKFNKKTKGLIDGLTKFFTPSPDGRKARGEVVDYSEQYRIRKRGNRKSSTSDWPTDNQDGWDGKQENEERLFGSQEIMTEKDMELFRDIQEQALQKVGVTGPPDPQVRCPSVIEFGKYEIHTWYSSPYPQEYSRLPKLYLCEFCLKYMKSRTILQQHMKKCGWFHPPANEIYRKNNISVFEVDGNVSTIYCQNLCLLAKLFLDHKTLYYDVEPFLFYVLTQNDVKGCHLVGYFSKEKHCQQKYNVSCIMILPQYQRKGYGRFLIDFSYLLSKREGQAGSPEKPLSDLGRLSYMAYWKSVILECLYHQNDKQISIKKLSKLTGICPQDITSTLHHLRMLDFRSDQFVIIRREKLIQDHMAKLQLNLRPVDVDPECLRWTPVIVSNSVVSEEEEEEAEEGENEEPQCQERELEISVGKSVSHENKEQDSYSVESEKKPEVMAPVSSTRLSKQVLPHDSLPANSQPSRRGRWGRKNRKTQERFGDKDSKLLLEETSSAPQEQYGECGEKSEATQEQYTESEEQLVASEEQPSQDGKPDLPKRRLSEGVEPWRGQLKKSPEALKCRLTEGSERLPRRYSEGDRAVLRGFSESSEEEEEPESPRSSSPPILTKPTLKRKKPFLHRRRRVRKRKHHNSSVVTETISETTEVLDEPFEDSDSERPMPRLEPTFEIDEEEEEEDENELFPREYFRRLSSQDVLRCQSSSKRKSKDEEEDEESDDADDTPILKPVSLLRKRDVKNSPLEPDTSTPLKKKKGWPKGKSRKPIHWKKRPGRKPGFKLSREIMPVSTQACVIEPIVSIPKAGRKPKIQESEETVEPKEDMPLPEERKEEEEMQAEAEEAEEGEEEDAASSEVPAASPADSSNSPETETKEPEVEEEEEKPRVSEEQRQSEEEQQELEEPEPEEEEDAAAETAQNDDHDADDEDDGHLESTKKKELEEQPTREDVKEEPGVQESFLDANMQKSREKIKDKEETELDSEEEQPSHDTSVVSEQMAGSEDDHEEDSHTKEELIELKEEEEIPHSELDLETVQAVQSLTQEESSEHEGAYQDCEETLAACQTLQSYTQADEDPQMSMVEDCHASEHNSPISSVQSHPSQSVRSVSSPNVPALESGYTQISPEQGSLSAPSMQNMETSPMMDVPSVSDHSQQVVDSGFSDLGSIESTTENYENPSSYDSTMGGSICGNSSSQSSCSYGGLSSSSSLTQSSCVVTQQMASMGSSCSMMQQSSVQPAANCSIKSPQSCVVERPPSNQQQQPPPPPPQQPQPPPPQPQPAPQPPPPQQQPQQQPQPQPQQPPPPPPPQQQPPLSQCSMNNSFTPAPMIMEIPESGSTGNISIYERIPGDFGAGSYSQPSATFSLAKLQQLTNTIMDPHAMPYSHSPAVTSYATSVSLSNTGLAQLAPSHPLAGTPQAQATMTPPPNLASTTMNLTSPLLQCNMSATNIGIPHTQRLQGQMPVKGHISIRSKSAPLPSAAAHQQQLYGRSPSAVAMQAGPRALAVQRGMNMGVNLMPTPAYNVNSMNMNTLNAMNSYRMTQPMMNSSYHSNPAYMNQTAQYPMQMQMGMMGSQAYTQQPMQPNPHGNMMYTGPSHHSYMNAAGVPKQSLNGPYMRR

With `COc1ccccc1S(=O)(=O)Nc1noc2cc(Cn3cccn3)c3c(c12)OCCO3` [Compound 4, N-(5-((1H-pyrazol-1-yl)methyl)-2,3-dihydro-[1,4]dioxino[2′,3′:5,6]benzo[1,2-d]isoxazol-9-yl)-2-methoxybenzenesulfonamide], the IC50 at human KAT6A stood at 4.2 nM. In assay [1], the IC50 stood at 1.5 nM and the Emax was found to be 106%.

Regarding `COc1cc(N(C)C)ccc1S(=O)(=O)Nc1noc2cc(Cn3cccn3)c3c(c12)OCCC3` [Compound 11, N-(5-((1H-pyrazol-1-yl)methyl)-3,4-dihydro-2H-chromeno[8,7-d]isoxazol-9-yl)-4-(dimethylamino)-2-methoxybenzenesulfonamide], on human KAT6A, the IC50 was 1.6 nM. In assay [1], the IC50 was determined as 2.1 nM and the Emax was determined as 103%.

`O=S(=O)(Nc1noc2cc(Cn3cccn3)c3c(c12)OCCC3)c1cccc2c1OCC2` [Compound 12, N-(5-((1H-pyrazol-1-yl)methyl)-3,4-dihydro-2H-chromeno[8,7-d]isoxazol-9-yl)-2,3-dihydrobenzofuran-7-sulfonamide] came in with an IC50 on human KAT6A of 12.5 nM.

At human KAT6A, `CCc1ccc(S(=O)(=O)Nc2noc3cc(Cn4cccn4)c4c(c23)OCCC4)c(OC)c1` [Compound 13, N-(5-((1H-pyrazol-1-yl)methyl)-3,4-dihydro-2H-chromeno[8,7-d]isoxazol-9-yl)-4-ethyl-2-methoxybenzenesulfonamide] displayed an IC50 of 0.3 nM.

For `COc1cc2c(cc1S(=O)(=O)Nc1noc3cc(Cn4cccn4)c4c(c13)OCC4)CCC2` [Compound 15, N-(4-((1H-pyrazol-1-yl)methyl)-2,3-dihydrobenzofuro[7,6-d]isoxazol-8-yl)-6-methoxy-2,3-dihydro-1H-indene-5-sulfonamide], on human KAT6A, the IC50 is 1.2 nM.

For `CCOc1cc(C)ccc1S(=O)(=O)Nc1noc2cc(Cn3cccn3)c3c(c12)OCC3` [Compound 16, N-(4-((1H-pyrazol-1-yl)methyl)-2,3-dihydrobenzofuro[7,6-d]isoxazol-8-yl)-2-ethoxy-4-methylbenzenesulfonamide], the IC50 against human KAT6A was determined as 1.9 nM.

Consider `COc1cccc(C)c1S(=O)(=O)Nc1noc2cc(Cn3cccn3)c3c(c12)OCC3` [Compound 17, N-(4-((1H-pyrazol-1-yl)methyl)-2,3-dihydrobenzofuro[7,6-d]isoxazol-8-yl)-2-methoxy-6-methylbenzenesulfonamide], for which the IC50 on human KAT6A was 10.5 nM.

On to `COc1ccc(C)cc1S(=O)(=O)Nc1noc2cc(Cn3cccn3)c3c(c12)OCC3` [Compound 18, N-(4-((1H-pyrazol-1-yl)methyl)-2,3-dihydrobenzofuro[7,6-d]isoxazol-8-yl)-2-methoxy-5-methylbenzenesulfonamide], for which, on human KAT6A, the IC50 was 12.5 nM.

Compound `COc1cc2c(cc1S(=O)(=O)Nc1noc3cc(Cn4cccn4)c4c(c13)OCC4)OCC2` [Compound 19, N-(4-((1H-pyrazol-1-yl)methyl)-2,3-dihydrobenzofuro[7,6-d]isoxazol-8-yl)-5-methoxy-2,3-dihydrobenzofuran-6-sulfonamide] registered an IC50 on human KAT6A of 2.7 nM.

On human KAT6A, `COc1cc(C)ccc1S(=O)(=O)Nc1noc2cc(Cn3cccn3)c3c(c12)OCC3` [Compound 22, N-(4-((1H-pyrazol-1-yl)methyl)-2,3-dihydrobenzofuro[7,6-d]isoxazol-8-yl)-2-methoxy-4-methylbenzenesulfonamide] gave an IC50 of 4.7 nM. Moreover, in assay [1], the IC50 was 2.9 nM and the Emax came to 105%.

As to `COc1cccc(OC)c1S(=O)(=O)Nc1noc2cc(C3CCCO3)c3c(c12)OCC3` (stereo not drawn) [Compound 26, 2,6-dimethoxy-N-(4-(tetrahydrofuran-2-yl)-2,3-dihydrobenzofuro[7,6-d]isoxazol-8-yl)benzenesulfonamide], the IC50 at human KAT6A turned out to be 12.2 nM.

As for `COc1cccc(OC)c1S(=O)(=O)Nc1noc2cc([C@H]3CCCO3)c3c(c12)OCC3` [Compound 26-1, (R)-2,6-dimethoxy-N-(4-(tetrahydrofuran-2-yl)-2,3-dihydrobenzofuro[7,6-d]isoxazol-8-yl)benzenesulfonamide], at human KAT6A, the IC50 came to 5.2 nM.
